Source: PubChem BioAssay (NCI)
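Following 48 hours of exposure in 96-well plates, responses at five concentrations were used to interpolate endpoints linearly. GI50 = concentration required for 50% inhibition of growth. Definition used: TGI = concentration required for complete inhibition of growth.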

Legend:
Assay in all cases: NCI tumour cell line growth inhibition, 48 h
786-0 renal = system: 786-0 renal
A498 renal = system: A498 renal
A549 NSCLC = system: A549 NSCLC
ACHN renal = system: ACHN renal
BT-549 breast = system: BT-549 breast
CAKI-1 renal = system: CAKI-1 renal
CCRF-CEM leukemia = system: CCRF-CEM leukemia
COLO 205 colon = system: COLO 205 colon
DU-145 prostate = system: DU-145 prostate
EKVX NSCLC = system: EKVX NSCLC
HCC-2998 colon = system: HCC-2998 colon
HCT-116 colon = system: HCT-116 colon
HCT-15 colon = system: HCT-15 colon
HL-60(TB) leukemia = system: HL-60(TB) leukemia
HOP-62 NSCLC = system: HOP-62 NSCLC
HOP-92 NSCLC = system: HOP-92 NSCLC
HS 578T breast = system: HS 578T breast
HT29 colon = system: HT29 colon
IGROV1 ovarian = system: IGROV1 ovarian
K-562 leukemia = system: K-562 leukemia
KM12 colon = system: KM12 colon
LOX IMVI melanoma = system: LOX IMVI melanoma
M14 melanoma = system: M14 melanoma
MALME-3M melanoma = system: MALME-3M melanoma
MCF7 breast = system: MCF7 breast
MDA-MB-231 breast = system: MDA-MB-231 breast
MDA-MB-435 = system: MDA-MB-435
MOLT-4 leukemia = system: MOLT-4 leukemia
NCI-H226 lung = system: NCI-H226 lung
NCI-H23 lung = system: NCI-H23 lung
NCI-H460 lung = system: NCI-H460 lung
NCI-H522 lung = system: NCI-H522 lung
NCI/ADR-RES ovarian = system: NCI/ADR-RES ovarian
OVCAR-3 ovarian = system: OVCAR-3 ovarian
OVCAR-4 ovarian = system: OVCAR-4 ovarian
OVCAR-5 ovarian = system: OVCAR-5 ovarian
OVCAR-8 ovarian = system: OVCAR-8 ovarian
PC-3 prostate = system: PC-3 prostate
RPMI-8226 leukemia = system: RPMI-8226 leukemia
RXF 393 renal = system: RXF 393 renal
SF-268 CNS = system: SF-268 CNS
SF-295 CNS = system: SF-295 CNS
SF-539 CNS = system: SF-539 CNS
SK-MEL-2 melanoma = system: SK-MEL-2 melanoma
SK-MEL-28 melanoma = system: SK-MEL-28 melanoma
SK-MEL-5 melanoma = system: SK-MEL-5 melanoma
SK-OV-3 ovarian = system: SK-OV-3 ovarian
SN12C renal = system: SN12C renal
SNB-19 CNS = system: SNB-19 CNS
SNB-75 CNS = system: SNB-75 CNS
SR leukemia = system: SR leukemia
SW-620 colon = system: SW-620 colon
T-47D breast = system: T-47D breast
TK-10 renal = system: TK-10 renal
U251 CNS = system: U251 CNS
UACC-257 melanoma = system: UACC-257 melanoma
UACC-62 melanoma = system: UACC-62 melanoma
UO-31 renal = system: UO-31 renal

O=[N+]([O-])c1ccc(C2CC(c3ccccc3)=Nc3ccccc3S2)cc1 (stereo unspecified) was tested, and the GI50 (786-0 renal) was > 100 µM, the TGI (786-0 renal) was > 100 µM and the GI50 (A498 renal) was 59.8 µM. For the same compound, the TGI (A498 renal) was > 100 µM, the GI50 (A549 NSCLC) was > 100 µM and the TGI (A549 NSCLC) was > 100 µM. For the same compound, the GI50 (ACHN renal) was 88.7 µM, the TGI (ACHN renal) was > 100 µM and the GI50 (BT-549 breast) was > 100 µM. For the same compound, the TGI (BT-549 breast) was > 100 µM, the GI50 (CAKI-1 renal) was > 100 µM and the TGI (CAKI-1 renal) was > 100 µM. For the same compound, the GI50 (CCRF-CEM leukemia) was 4.66 µM, the TGI (CCRF-CEM leukemia) was > 100 µM and the GI50 (COLO 205 colon) was > 100 µM. The TGI (COLO 205 colon) was > 100 µM, the GI50 (DU-145 prostate) was 5.15 µM and the TGI (DU-145 prostate) was > 100 µM. The GI50 (EKVX NSCLC) was > 100 µM, the TGI (EKVX NSCLC) was > 100 µM and the GI50 (HCC-2998 colon) was > 100 µM. The TGI (HCC-2998 colon) was > 100 µM, the GI50 (HCT-116 colon) was 1.98 µM and the TGI (HCT-116 colon) was 4.11 µM. The GI50 (HCT-15 colon) was 8.03 µM, the TGI (HCT-15 colon) was > 100 µM and the GI50 (HL-60(TB) leukemia) was > 100 µM. The TGI (HL-60(TB) leukemia) was > 100 µM, the GI50 (HOP-62 NSCLC) was 97.1 µM and the TGI (HOP-62 NSCLC) was > 100 µM. The GI50 (HOP-92 NSCLC) was 24.5 µM, the TGI (HOP-92 NSCLC) was > 100 µM and the GI50 (HS 578T breast) was 19.1 µM. The TGI (HS 578T breast) was > 100 µM, the GI50 (HT29 colon) was 7.62 µM and the TGI (HT29 colon) was > 100 µM. For the same compound, the GI50 (IGROV1 ovarian) was 13.3 µM, the TGI (IGROV1 ovarian) was > 100 µM and the GI50 (K-562 leukemia) was 3.87 µM. For the same compound, the TGI (K-562 leukemia) was > 100 µM, the GI50 (KM12 colon) was 6.13 µM and the TGI (KM12 colon) was 97.5 µM. The GI50 (LOX IMVI melanoma) was 3.68 µM, the TGI (LOX IMVI melanoma) was > 100 µM and the GI50 (M14 melanoma) was 51 µM. The TGI (M14 melanoma) was > 100 µM, the GI50 (MALME-3M melanoma) was > 100 µM and the TGI (MALME-3M melanoma) was > 100 µM. The GI50 (MCF7 breast) was 1.81 µM, the TGI (MCF7 breast) was 6.72 µM and the GI50 (MDA-MB-231 breast) was > 100 µM. For the same compound, the TGI (MDA-MB-231 breast) was > 100 µM, the GI50 (MDA-MB-435) was > 100 µM and the TGI (MDA-MB-435) was > 100 µM. For the same compound, the GI50 (MOLT-4 leukemia) was 6.04 µM, the TGI (MOLT-4 leukemia) was > 100 µM and the GI50 (NCI-H226 lung) was > 100 µM. The TGI (NCI-H226 lung) was > 100 µM, the GI50 (NCI-H23 lung) was > 100 µM and the TGI (NCI-H23 lung) was > 100 µM. The GI50 (NCI-H460 lung) was > 100 µM, the TGI (NCI-H460 lung) was > 100 µM and the GI50 (NCI-H522 lung) was > 100 µM. For the same compound, the TGI (NCI-H522 lung) was > 100 µM, the GI50 (NCI/ADR-RES ovarian) was > 100 µM and the TGI (NCI/ADR-RES ovarian) was > 100 µM. For the same compound, the GI50 (OVCAR-3 ovarian) was 11.8 µM, the TGI (OVCAR-3 ovarian) was > 100 µM and the GI50 (OVCAR-4 ovarian) was 21.4 µM. For the same compound, the TGI (OVCAR-4 ovarian) was > 100 µM, the GI50 (OVCAR-5 ovarian) was > 100 µM and the TGI (OVCAR-5 ovarian) was > 100 µM. The GI50 (OVCAR-8 ovarian) was 52.4 µM, the TGI (OVCAR-8 ovarian) was > 100 µM and the GI50 (PC-3 prostate) was 8.2 µM. For the same compound, the TGI (PC-3 prostate) was > 100 µM, the GI50 (RPMI-8226 leukemia) was 2.82 µM and the TGI (RPMI-8226 leukemia) was 8.29 µM. The GI50 (RXF 393 renal) was > 100 µM, the TGI (RXF 393 renal) was > 100 µM and the GI50 (SF-268 CNS) was > 100 µM. For the same compound, the TGI (SF-268 CNS) was > 100 µM, the GI50 (SF-295 CNS) was > 100 µM and the TGI (SF-295 CNS) was > 100 µM. The GI50 (SF-539 CNS) was > 100 µM, the TGI (SF-539 CNS) was > 100 µM and the GI50 (SK-MEL-2 melanoma) was > 100 µM. The TGI (SK-MEL-2 melanoma) was > 100 µM, the GI50 (SK-MEL-28 melanoma) was > 100 µM and the TGI (SK-MEL-28 melanoma) was > 100 µM. For the same compound, the GI50 (SK-MEL-5 melanoma) was > 100 µM, the TGI (SK-MEL-5 melanoma) was > 100 µM and the GI50 (SK-OV-3 ovarian) was > 100 µM. The TGI (SK-OV-3 ovarian) was > 100 µM, the GI50 (SN12C renal) was > 100 µM and the TGI (SN12C renal) was > 100 µM. The GI50 (SNB-19 CNS) was > 100 µM, the TGI (SNB-19 CNS) was > 100 µM and the GI50 (SNB-75 CNS) was 8.55 µM. For the same compound, the TGI (SNB-75 CNS) was > 100 µM, the GI50 (SR leukemia) was 3.59 µM and the TGI (SR leukemia) was > 100 µM. For the same compound, the GI50 (SW-620 colon) was 2.75 µM, the TGI (SW-620 colon) was 11.1 µM and the GI50 (T-47D breast) was > 100 µM. For the same compound, the TGI (T-47D breast) was > 100 µM, the GI50 (TK-10 renal) was > 100 µM and the TGI (TK-10 renal) was > 100 µM. The GI50 (U251 CNS) was 4.7 µM, the TGI (U251 CNS) was > 100 µM and the GI50 (UACC-257 melanoma) was > 100 µM. The TGI (UACC-257 melanoma) was > 100 µM, the GI50 (UACC-62 melanoma) was > 100 µM and the TGI (UACC-62 melanoma) was > 100 µM. For the same compound, the GI50 (UO-31 renal) was 3.8 µM and the TGI (UO-31 renal) was > 100 µM.
